Reference: patent US20090143279A1 (priority 2007, published 2009)
Where two headings read alike, the source gives them in different places.

Key:
[1] = test system: mitochondrial membrane potential; format: cell-based, mouse
nuOXPHOS transcripts = format: cell-based, mouse
mtOXPHOS transcripts = format: cell-based, mouse
reactive oxygen species = format: cell-based, mouse
[2] = test system: cellular dehydrogenase activity
cytochrome c = format: cell-based, mouse
OXPHOS gene expression = format: cell-based, mouse
[3] = composite Z-score vs DMSO, Conc 20 μM
[4] = 20 μM, composite Z-score vs DMSO
[5] = composite Z-score vs DMSO wells, Conc 20 μM
[6] = composite Z-score vs mock-treated (DMSO) wells, Conc 20 μM
[7] = normalized composite Z-score vs mock-treated (DMSO) wells, Conc 20 μM
[8] = composite Z-score vs DMSO, Conc 10.24 μM
[9] = 18.76 μM, composite Z-score vs DMSO
[10] = 13.16 μM, composite Z-score vs DMSO

C[C@@H]1O[C@@H](O[C@H]2C[C@@H](O)[C@]3(CO)[C@H]4[C@H](O)C[C@]5(C)[C@@H](C6=CC(=O)OC6)CC[C@]5(O)[C@@H]4CC[C@]3(O)C2)[C@H](O)[C@H](O)[C@H]1O [ouabain]
ΔΨm [1, 3]: −1.093
nucOX (nuOXPHOS transcripts; [3]): −0.986
mitoOX (mtOXPHOS transcripts; [3]): −1.547
ROS (reactive oxygen species; [3]): 0.466
Viability (C2C12 myotubes; [3]): −0.631
MTT [2, 3]: −2.101
cyt c (cytochrome c; [3]): 0.262
GE-HTS (OXPHOS gene expression; [3]): −1.278

Cc1onc(-c2ccccc2)c1C(=O)N[C@@H]1C(=O)N2[C@@H]1SC(C)(C)[C@@H]2C(=O)[O-].[Na+] [oxacillin sodium]
ΔΨm [1, 3]: −0.432
nucOX (nuOXPHOS transcripts; [3]): −0.629
mitoOX (mtOXPHOS transcripts; [3]): −0.881
ROS (reactive oxygen species; [3]): 0.572
Viability (C2C12 myotubes; [3]): −1.101
MTT [2, 3]: −1.064
cyt c (cytochrome c; [3]): −0.361
GE-HTS (OXPHOS gene expression; [3]): −0.790

CN(C(=O)CN(CCO)CC(=O)N(C)C(C)(C)Cc1ccccc1)C(C)(C)Cc1ccccc1 [oxethazaine]
ΔΨm [1]: −0.742
ΔΨm [1, 4]: 0.173
nucOX (nuOXPHOS transcripts): 0.335
nucOX (nuOXPHOS transcripts; [4]): −0.812
mitoOX (mtOXPHOS transcripts): 0.609
mitoOX (mtOXPHOS transcripts; [4]): −0.486
ROS (reactive oxygen species): 1.092
ROS (reactive oxygen species; [4]): −0.055
Viability (C2C12 myotubes): −0.497
Viability (C2C12 myotubes; [4]): −0.294
MTT [2]: −1.374
MTT [2, 4]: −1.451
cyt c (cytochrome c): −0.550
cyt c (cytochrome c; [4]): −0.278
GE-HTS (OXPHOS gene expression): 0.473
GE-HTS (OXPHOS gene expression; [4]): −0.739

CCn1cc(C(=O)O)c(=O)c2cc3c(cc21)OCO3 [oxolinic acid]
ΔΨm [1, 5]: −0.640
nucOX (nuOXPHOS transcripts; [5]): 0.211
mitoOX (mtOXPHOS transcripts; [5]): 0.171
ROS (reactive oxygen species; [5]): 0.681
Viability (C2C12 myotubes; [5]): −0.913
MTT [2, 5]: −1.598
cyt c (cytochrome c): 0.227
cyt c (cytochrome c; [5]): 0.083
GE-HTS (OXPHOS gene expression; [5]): 0.217

COC[C@]12CN(C=O)[C@@H]3[C@@H]4[C@H](OC)[C@H]1[C@@]3([C@@H](OC)C[C@H]2O)[C@@H]1C[C@@]2(O)[C@H](OC(=O)c3ccccc3)[C@@H]1[C@]4(OC(C)=O)[C@@H](O)[C@@H]2OC [oxonitine]
ΔΨm [1, 6]: −1.019
nucOX (nuOXPHOS transcripts; [6]): −0.938
mitoOX (mtOXPHOS transcripts; [6]): 0.147
ROS (reactive oxygen species; [6]): −0.167
Viability (C2C12 myotubes; [6]): −1.338
MTT [2, 6]: −1.730
cyt c (cytochrome c; [6]): 0.394
GE-HTS (OXPHOS gene expression; [6]): −0.636

Oc1cccc2cccnc12 [oxyquinoline]
ΔΨm [1]: −0.867
nucOX (nuOXPHOS transcripts): 0.526
mitoOX (mtOXPHOS transcripts): 0.435
ROS (reactive oxygen species): 0.684
Viability (C2C12 myotubes): −1.140
MTT [2]: −0.815
cyt c (cytochrome c): −0.121
GE-HTS (OXPHOS gene expression): 0.534

NNC(=O)c1ccncc1.Nc1ccc(C(=O)O)c(O)c1 [pasiniazid]
ΔΨm [1, 3]: −0.809
nucOX (nuOXPHOS transcripts; [3]): −0.022
mitoOX (mtOXPHOS transcripts; [3]): −0.164
ROS (reactive oxygen species; [3]): 0.502
Viability (C2C12 myotubes; [3]): −0.883
MTT [2, 3]: −0.807
cyt c (cytochrome c; [3]): 0.590
GE-HTS (OXPHOS gene expression; [3]): −0.059

COc1ccc(-c2cc(=O)c3c(O)c(OC)c(O[C@@H]4O[C@H](CO[C@@H]5O[C@@H](C)[C@H](O)[C@@H](O)[C@H]5O)[C@@H](O)[C@H](O)[C@H]4O)cc3o2)cc1 [pectolinarin]
ΔΨm [1, 7]: −0.280
nucOX (nuOXPHOS transcripts; [7]): −1.292
mitoOX (mtOXPHOS transcripts; [7]): −1.349
ROS (reactive oxygen species; [7]): 1.058
Viability (C2C12 myotubes; [7]): −0.100
MTT [2, 7]: −0.475
cyt c (cytochrome c; [7]): −0.739
GE-HTS (OXPHOS gene expression; [7]): −1.381

CC(=O)C[C@H]1CCCCN1 [pelletierine]
ΔΨm [1, 7]: −0.120
nucOX (nuOXPHOS transcripts; [7]): 0.077
mitoOX (mtOXPHOS transcripts; [7]): −0.077
ROS (reactive oxygen species; [7]): −0.071
Viability (C2C12 myotubes; [7]): −0.418
MTT [2, 7]: −0.341
cyt c (cytochrome c; [7]): 0.349
GE-HTS (OXPHOS gene expression; [7]): 0.036

CN1C(C)(C)CCCC1(C)C [pempidine]
ΔΨm [1]: −0.967
ΔΨm [1, 3]: −0.376
nucOX (nuOXPHOS transcripts): −0.425
nucOX (nuOXPHOS transcripts; [3]): −1.035
mitoOX (mtOXPHOS transcripts): −0.998
mitoOX (mtOXPHOS transcripts; [3]): −0.378
ROS (reactive oxygen species): 1.119
ROS (reactive oxygen species; [3]): 0.861
Viability (C2C12 myotubes): −1.023
Viability (C2C12 myotubes; [3]): −0.822
MTT [2]: −2.128
MTT [2, 3]: −1.419
cyt c (cytochrome c): 0.163
cyt c (cytochrome c; [3]): 0.146
GE-HTS (OXPHOS gene expression): −0.656
GE-HTS (OXPHOS gene expression; [3]): −0.874

CC1(C)S[C@@H]2[C@H](NC(=O)COc3ccccc3)C(=O)N2[C@H]1C(=O)O [penicillin V]
ΔΨm [1, 4]: −0.564
nucOX (nuOXPHOS transcripts; [4]): −0.844
mitoOX (mtOXPHOS transcripts; [4]): −0.654
ROS (reactive oxygen species; [4]): 0.748
Viability (C2C12 myotubes; [4]): 0.062
MTT [2, 4]: −1.319
cyt c (cytochrome c; [4]): 0.258
GE-HTS (OXPHOS gene expression; [4]): −0.849

C[N+]1(CCCCC[N+]2(C)CCCC2)CCCC1 [pentolinium]
ΔΨm [1, 8]: −0.024
ΔΨm [1, 3]: 0.209
nucOX (nuOXPHOS transcripts; [8]): 0.489
nucOX (nuOXPHOS transcripts; [3]): −0.840
mitoOX (mtOXPHOS transcripts; [8]): 0.444
mitoOX (mtOXPHOS transcripts; [3]): −1.080
ROS (reactive oxygen species; [8]): 3.608
ROS (reactive oxygen species; [3]): 0.392
Viability (C2C12 myotubes; [8]): 0.213
Viability (C2C12 myotubes; [3]): −0.568
MTT [2, 8]: 0.254
MTT [2, 3]: −0.771
cyt c (cytochrome c; [8]): 0.387
cyt c (cytochrome c; [3]): −0.703
GE-HTS (OXPHOS gene expression; [8]): 0.521
GE-HTS (OXPHOS gene expression; [3]): −1.000

CO[C@H]1[C@H](O)[C@H](O[C@H]2CC[C@@]3(C=O)[C@H](CC[C@@H]4[C@@H]3CC[C@]3(C)[C@@H](C5=CC(=O)OC5)CC[C@]43O)C2)O[C@@H](C)[C@@H]1O [peruvoside]
ΔΨm [1, 5]: −0.906
nucOX (nuOXPHOS transcripts; [5]): 0.297
mitoOX (mtOXPHOS transcripts; [5]): 0.324
ROS (reactive oxygen species; [5]): 0.997
Viability (C2C12 myotubes; [5]): 0.426
MTT [2, 5]: −1.190
cyt c (cytochrome c; [5]): 0.075
GE-HTS (OXPHOS gene expression; [5]): 0.328

CC(C)=CCc1c(O)cc2oc(C)cc(=O)c2c1O [peucenin]
ΔΨm [1, 6]: −0.057
nucOX (nuOXPHOS transcripts; [6]): 0.051
mitoOX (mtOXPHOS transcripts; [6]): 0.361
ROS (reactive oxygen species; [6]): −0.014
Viability (C2C12 myotubes; [6]): −0.906
MTT [2, 6]: −1.695
cyt c (cytochrome c; [6]): 0.494
GE-HTS (OXPHOS gene expression; [6]): 0.148

CCOc1ccc(NC(C)=O)cc1 [phenacetin]
ΔΨm [1, 5]: −0.255
nucOX (nuOXPHOS transcripts; [5]): 0.833
mitoOX (mtOXPHOS transcripts; [5]): 0.564
ROS (reactive oxygen species; [5]): 1.491
Viability (C2C12 myotubes; [5]): 0.665
MTT [2, 5]: 0.760
cyt c (cytochrome c): −0.611
cyt c (cytochrome c; [5]): 0.005
GE-HTS (OXPHOS gene expression; [5]): 0.811

Nc1ccc(/N=N/c2ccccc2)c(N)n1 [phenazopyridine]
ΔΨm [1, 9]: 0.126
ΔΨm [1, 4]: 1.263
nucOX (nuOXPHOS transcripts; [9]): −0.323
nucOX (nuOXPHOS transcripts; [4]): 0.207
mitoOX (mtOXPHOS transcripts; [9]): −0.930
mitoOX (mtOXPHOS transcripts; [4]): 0.544
ROS (reactive oxygen species; [9]): 0.587
ROS (reactive oxygen species; [4]): 1.911
Viability (C2C12 myotubes; [9]): −0.413
Viability (C2C12 myotubes; [4]): 0.627
MTT [2, 9]: −2.094
MTT [2, 4]: −0.692
cyt c (cytochrome c; [9]): 0.678
cyt c (cytochrome c; [4]): 0.335
GE-HTS (OXPHOS gene expression; [9]): −0.561
GE-HTS (OXPHOS gene expression; [4]): 0.362

CC(COc1ccccc1)N(CCCl)Cc1ccccc1 (stereo not shown) [phenoxybenzamine]
ΔΨm [1, 10]: −0.422
ΔΨm [1, 4]: 0.021
nucOX (nuOXPHOS transcripts; [10]): −0.306
nucOX (nuOXPHOS transcripts; [4]): −1.077
mitoOX (mtOXPHOS transcripts; [10]): 0.167
mitoOX (mtOXPHOS transcripts; [4]): −1.462
ROS (reactive oxygen species; [10]): 0.444
ROS (reactive oxygen species; [4]): 0.256
Viability (C2C12 myotubes; [10]): −0.751
Viability (C2C12 myotubes; [4]): −0.906
MTT [2, 10]: −0.159
MTT [2, 4]: −1.049
cyt c (cytochrome c; [10]): −0.470
cyt c (cytochrome c; [4]): −0.188
GE-HTS (OXPHOS gene expression; [10]): −0.155
GE-HTS (OXPHOS gene expression; [4]): −1.302
